{"source": "patent US20040038861A1", "about": "“Methods and compositions for normalizing lipid levels in mammalian tissues” (priority 2001, published 2004)", "key": {"soleus muscle [1]": {"test_system": "soleus muscle", "experiment": "Individual free fatty acids by gas chromatography in soleus muscle of rats fed high fat diets", "set-up": "species or system rat", "conditions": "1 hour, GC", "description": "(§1) High-fatted rats. Groups of male Wistar rats (n=21/diet) were ad libitum fed high-fat diets containing standard rat chow to which 40% (w/w) of lard, corn oil or olive oil had been added, from the time of weaning (age=21 d) until sacrifice at 50 d. Triacylglycerol from lard contains predominantly saturated fatty acids; that from corn oil […], see Table 4.\n(§2) Soleus muscle tissue isolation and incuhation.Immersion and incubation media was Krebs-Henseleit buffer (KHB) containing 118.5 mM NaCl, 4.75 mM KCl, 1.18 mM MgSO4.7H2O and KH2PO4, 24.8 mM NaHCO3, 2.54 mM CaCl2 and 10 mM d-glucose. The medium was gassed continuously with 95% O2/5% CO2. […] Soleus muscles of both legs were excised keeping the tissue immersed in KHB; muscles were separated into two equal parts and transferred to the incubation flasks. At the completion of incubation the muscles were snap frozen in liquid nitrogen, and then trimmed of connective tissue and all visible fat. The muscle strips were stored at −80° C. until analysis.\n(§3) Lipid extraction and chromatographic separation of fatty acids. Total lipids were extracted from muscle strips by a modified version of the method of Bligh and Dyer (Gorski et al., 1988, Mol & Cell Biochem 178:113-118; 1. Bligh et al., 1959, Can J Biochem Physiol 37: 911-917). Muscles were homogenised (Soniprep 150) in 0.4 ml of deionised water. Solvent volumes used herein were varied according to the water content of the muscle (ie muscle weight) as described (Bligh & Dyer, supra). 2 vols of methanol containing 0.005% butylated hydroxy toluene (BHT) and 1 vol chloroform were added to the muscle suspension. Homogenates were vortexed at maximum speed for 2 minutes and centrifuged at 2,500 g for 4 minutes. Supernatants were recovered and pellets re-extracted with 2 vol methanol, 1 vol chloroform and 0.8 vol 0.2 N HCl. Residues were vortexed for 2 min then centrifuged at 3,500 g for 3 min. After centrifugation the combined supernatants were diluted with 2v each of milli Q water and chloroform and the phases separated by centrifugation at 3,500 g for 4 minutes. The lower chloroform phase was recovered, neutralised by dropwise addition of 0.2 N methanolic NH4OH and evaporated down in a stream of N2. The samples were stored at −80° C. until required.\n(§4) Aminopropyl phase (250 mg) was packed into 16 ml teflon columns with teflon frits placed at the top and bottom of the bonded phase. Columns were placed in a Vac Elut apparatus and washed twice with 2 ml portions of hexane (Prasad et al., 1988, J Chromato 428: 221-228; Kaluzny et al., 1985, J Lipid Res 26: 135-140). The dry lipid samples were taken up in two 0.150 ml portions of chloroform and applied to the column under atmospheric pressure. After adsorption the neutral lipids were eluted with 4 ml of chloroform-2-propanol (2:1, v/v) and the free fatty acids eluted with 4 ml of 2% acetic acid in diethyl ether. The solvent containing the free fatty acids was dried under a stream of N2.\nGas-liquid chromatographic analysis. Dry free fatty acid residues were processed for derivatisation of methyl esters by the boron trifluoride-methanol method (Prasad, supra). 1 ml of boron trifluoride in methanol (BF3) was added to each sample, the sample vials were heated at 70° C. for 5 minutes, shaken vigorously, and baked for a further 10 minutes. Once the samples reached room temperature 0.5 ml milli Q water was added, the sample vials shaken, 0.1 ml heptane was added and the sample shaken again. 0.05 ml of the top heptane layer was removed for GLC analysis. A Model HP5890 Plus Series 2 (Hewlett-Packard) gas chromatograph equipped with a DB-225 column was used to separate the methyl esters of the fatty acids and a Model HP 5890 GC with a Model HP 5973 MS (Hewlett-Packard) GC/MS used to confirm the identity of individual free fatty acids. […]"}, "soleus muscle [2]": {"test_system": "soleus muscle", "experiment": "Triglyceride and free fatty acid content (enzymatic) in isolated soleus muscle of rats fed high fat diets", "format": "cell-based, rat", "conditions": "1 h", "description": "as §1, §2, §3, §4\nDetermination of tissue free fatty acids and triacylglycerol concentration by enzymatic analyses. Free fatty acids were separated from total lipid, evaporated under a stream of N2 and stored at −80° C. until analysis. Samples were dissolved in 50 μl of warm ethanol (35-40° C.), and 0.625 ml of a Triton X-100 (6% w/v) solution was added once the ethanol reached room temperature. The solution was stirred for 30 min, then made up to 0.825 ml with the Triton solution. Free fatty acids were quantified using a commercial method (Boehringer Mannheim) adapted for micro analyses (Cobas Mira, Roche Diagnostics), with palmitic acid standards. Triacyl glycerol levels were quantified in the total lipid fraction (Pointe Scientific) with a glycerol standard.\nTotal lipid was extracted and quantitated. Results are shown in FIGS. 18A NEFA and 18B triglyceride."}, "soleus muscle [3]": {"test_system": "soleus muscle", "experiment": "Lipid metabolites (free fatty acid, glycerol, triglyceride; enzymatic analysis) in isolated soleus muscle from normally fed rats", "format": "cell-based, rat"}, "[4]": {"conditions": "rats fed diet high in olive oil"}}}
{"substance": "rat CGRP-1", "values": [{"measurement": "free fatty acid adrenic C22:4", "setting": "soleus muscle [1]; rats fed diet high in corn oil", "value": "0.04 ± 0.002", "unit": "nmol/g wwt"}, {"measurement": "free fatty acid arachidic C20:0", "setting": "soleus muscle [1]; rats fed diet high in corn oil", "value": "0.03 ± 0.005", "unit": "nmol/g wwt"}, {"measurement": "free fatty acid arachidonic C20:4", "setting": "soleus muscle [1]; rats fed diet high in corn oil", "value": "0.02 ± 0.002", "unit": "nmol/g wwt"}, {"measurement": "free fatty acid cervonic C22:6", "setting": "soleus muscle [1]; rats fed diet high in corn oil", "value": "0.03 ± 0.003", "unit": "nmol/g wwt"}, {"measurement": "free fatty acid linoleic C18:2", "setting": "soleus muscle [1]; rats fed diet high in corn oil", "value": "0.18 ± 0.008", "unit": "nmol/g wwt"}, {"measurement": "free fatty acid linolenic C18:3", "setting": "soleus muscle [1]; rats fed diet high in corn oil", "value": "0.17 ± 0.01", "unit": "nmol/g wwt"}, {"measurement": "free fatty acid margaric C17:0", "setting": "soleus muscle [1]; rats fed diet high in corn oil", "value": "0.02 ± 0.003", "unit": "nmol/g wwt"}, {"measurement": "free fatty acid myristic C14:0", "setting": "soleus muscle [1]; rats fed diet high in corn oil", "value": "0.03 ± 0.02", "unit": "nmol/g wwt"}, {"measurement": "free fatty acid oleic C18:1", "setting": "soleus muscle [1]; rats fed diet high in corn oil", "value": "0.16 ± 0.01", "unit": "nmol/g wwt"}, {"measurement": "free fatty acid palmitic C16:0", "setting": "soleus muscle [1]; rats fed diet high in corn oil", "value": "0.16 ± 0.03", "unit": "nmol/g wwt"}, {"measurement": "free fatty acid palmitoleic (n-7) C16:1", "setting": "soleus muscle [1]; rats fed diet high in corn oil", "value": "0.01 ± 0.0008", "unit": "nmol/g wwt"}, {"measurement": "free fatty acid palmitoleic (n-9) C16:1", "setting": "soleus muscle [1]; rats fed diet high in corn oil", "value": "0.20 ± 0.008", "unit": "nmol/g wwt"}, {"measurement": "free fatty acid pentadecanoic C15:0", "setting": "soleus muscle [1]; rats fed diet high in corn oil", "value": "0.04 ± 003", "unit": "nmol/g wwt"}, {"measurement": "free fatty acid stearic C18:0", "setting": "soleus muscle [1]; rats fed diet high in corn oil", "value": "0.39 ± 0.02", "unit": "nmol/g wwt"}, {"measurement": "free fatty acid timnodonic C20:5", "setting": "soleus muscle [1]; rats fed diet high in corn oil", "value": "0.04 ± 0.001", "unit": "nmol/g wwt"}, {"measurement": "free fatty acid vaccenic C18:1", "setting": "soleus muscle [1]; rats fed diet high in corn oil", "value": "0.02 ± 0.004", "unit": "nmol/g wwt"}, {"measurement": "free fatty acid adrenic C22:4", "setting": "soleus muscle [1]; rats fed diet high in lard", "value": "0.04 ± 0.005", "unit": "nmol/g wwt"}, {"measurement": "free fatty acid arachidic C20:0", "setting": "soleus muscle [1]; rats fed diet high in lard", "value": "0.07 ± 0.004", "unit": "nmol/g wwt"}, {"measurement": "free fatty acid arachidonic C20:4", "setting": "soleus muscle [1]; rats fed diet high in lard", "value": "0.02 ± 0.001", "unit": "nmol/g wwt"}, {"measurement": "free fatty acid cervonic C22:6", "setting": "soleus muscle [1]; rats fed diet high in lard", "value": "0.015 ± 0.002", "unit": "nmol/g wwt"}, {"measurement": "free fatty acid linoleic C18:2", "setting": "soleus muscle [1]; rats fed diet high in lard", "value": "0.23 ± 0.005", "unit": "nmol/g wwt"}, {"measurement": "free fatty acid margaric C17:0", "setting": "soleus muscle [1]; rats fed diet high in lard", "value": "0.09 ± 0.01", "unit": "nmol/g wwt"}, {"measurement": "free fatty acid myristic C14:0", "setting": "soleus muscle [1]; rats fed diet high in lard", "value": "0.03 ± 0.007", "unit": "nmol/g wwt"}, {"measurement": "free fatty acid oleic C18:1", "setting": "soleus muscle [1]; rats fed diet high in lard", "value": "0.25 ± 0.02", "unit": "nmol/g wwt"}, {"measurement": "free fatty acid palmitic C16:0", "setting": "soleus muscle [1]; rats fed diet high in lard", "value": "0.24 ± 0.01", "unit": "nmol/g wwt"}, {"measurement": "free fatty acid palmitoleic (n-7) C16:1", "setting": "soleus muscle [1]; rats fed diet high in lard", "value": "0.02 ± 0.005", "unit": "nmol/g wwt"}, {"measurement": "free fatty acid palmitoleic (n-9) C16:1", "setting": "soleus muscle [1]; rats fed diet high in lard", "value": "0.03 ± 0.003", "unit": "nmol/g wwt"}, {"measurement": "free fatty acid pentadecanoic C15:0", "setting": "soleus muscle [1]; rats fed diet high in lard", "value": "0.14 ± 0.01", "unit": "nmol/g wwt"}, {"measurement": "free fatty acid stearic C18:0", "setting": "soleus muscle [1]; rats fed diet high in lard", "value": "0.35 ± 0.06", "unit": "nmol/g wwt"}, {"measurement": "free fatty acid timnodonic C20:5", "setting": "soleus muscle [1]; rats fed diet high in lard", "value": "0.02 ± 0.002", "unit": "nmol/g wwt"}, {"measurement": "free fatty acid vaccenic C18:1", "setting": "soleus muscle [1]; rats fed diet high in lard", "value": "0.03 ± 0.006", "unit": "nmol/g wwt"}, {"measurement": "free fatty acid adrenic C22:4", "setting": "soleus muscle [1]; [4]", "value": "0.03 ± 0.006", "unit": "nmol/g wwt"}, {"measurement": "free fatty acid arachidic C20:0", "setting": "soleus muscle [1]; [4]", "value": "0.04 ± 0.001", "unit": "nmol/g wwt"}, {"measurement": "free fatty acid arachidonic C20:4", "setting": "soleus muscle [1]; [4]", "value": "0.02 ± 0.007", "unit": "nmol/g wwt"}, {"measurement": "free fatty acid cervonic C22:6", "setting": "soleus muscle [1]; [4]", "value": "0.11 ± 0.03", "unit": "nmol/g wwt"}, {"measurement": "free fatty acid linoleic C18:2", "setting": "soleus muscle [1]; [4]", "value": "0.06 ± 0.01", "unit": "nmol/g wwt"}, {"measurement": "free fatty acid linolenic C18:3", "setting": "soleus muscle [1]; [4]", "value": "0.03 ± 0.0009", "unit": "nmol/g wwt"}, {"measurement": "free fatty acid margaric C17:0", "setting": "soleus muscle [1]; [4]", "value": "0.03 ± 0.012", "unit": "nmol/g wwt"}, {"measurement": "free fatty acid myristic C14:0", "setting": "soleus muscle [1]; [4]", "value": "0.015 ± 0.0009", "unit": "nmol/g wwt"}, {"measurement": "free fatty acid oleic C18:1", "setting": "soleus muscle [1]; [4]", "value": "0.34 ± 0.01", "unit": "nmol/g wwt"}, {"measurement": "free fatty acid palmitic C16:0", "setting": "soleus muscle [1]; [4]", "value": "0.20 ± 0.006", "unit": "nmol/g wwt"}, {"measurement": "free fatty acid palmitoleic (n-7) C16:1", "setting": "soleus muscle [1]; [4]", "value": "0.02 ± 0.002", "unit": "nmol/g wwt"}, {"measurement": "free fatty acid palmitoleic (n-9) C16:1", "setting": "soleus muscle [1]; [4]", "value": "0.27 ± 0.013", "unit": "nmol/g wwt"}, {"measurement": "free fatty acid pentadecanoic C15:0", "setting": "soleus muscle [1]; [4]", "value": "0.08 ± 002", "unit": "nmol/g wwt"}, {"measurement": "free fatty acid stearic C18:0", "setting": "soleus muscle [1]; [4]", "value": "0.12 ± 0.004", "unit": "nmol/g wwt"}, {"measurement": "free fatty acid timnodonic C20:5", "setting": "soleus muscle [1]; [4]", "value": "0.01 ± 0.001", "unit": "nmol/g wwt"}, {"measurement": "free fatty acid vaccenic C18:1", "setting": "soleus muscle [1]; [4]", "value": "0.17 ± 0.008", "unit": "nmol/g wwt"}, {"measurement": "soleus muscle triglyceride content", "setting": "soleus muscle [2]; diet with 40% added lard, 100 nM amylin or CGRP-1, 4.4 μM norepinephrine, control 1.14±0.16", "value": "0.75 ± 0.08", "unit": "µmol/g"}, {"measurement": "soleus muscle free fatty acid content", "setting": "soleus muscle [2]; diet with 40% added lard, 100 nM amylin or CGRP-1, 4.4 μM norepinephrine, control 43±8", "value": "64 ± 7", "unit": "nmol/g"}, {"measurement": "soleus muscle triglyceride content", "setting": "soleus muscle [2]; diet with 40% corn oil, 100 nM, control 0.89±0.06 μmol/g", "value": "0.48±0.06 [mol/g"}, {"measurement": "soleus muscle free fatty acid content", "setting": "soleus muscle [2]; diet with 40% corn oil, 100 nM, control 35±4", "value": "99 ± 17", "unit": "nmol/g"}, {"measurement": "soleus muscle triglyceride content", "setting": "soleus muscle [2]; diet with 40% olive oil, 100 nM, control 0.83±0.1", "value": "0.52 ± 0.08", "unit": "µmol/g"}, {"measurement": "soleus muscle free fatty acid content", "setting": "soleus muscle [2]; diet with 40% olive oil, 100 nM, control 15±3", "value": "55 ± 14", "unit": "nmol/g"}, {"measurement": "soleus muscle free fatty acid concentration, agonist alone", "setting": "soleus muscle [3]; 1 pM CGRP, 1 h (FIG. 3C)", "value": "166 ± 18", "unit": "nmol/g"}, {"measurement": "soleus muscle free fatty acid content, agonist alone", "setting": "soleus muscle [3]; 100 nM, 1 h, normal-fed rats (FIG. 3A, 3B)", "value": "334 ± 52", "unit": "nmol/g"}, {"measurement": "triacylglycerol (triglyceride) content", "setting": "soleus muscle [3]; soleus, normally fed rats, 60-min, 100 nM amylin or CGRP-1, 4.4 μM norepinephrine, control 1.17±0.15, not significant", "value": "1.9 ± 0.23", "unit": "µmol/g"}, {"measurement": "intramuscular glycerol content", "setting": "soleus muscle [3]; soleus, normally fed rats, 1 h, 100 nM amylin or CGRP-1, 4.4 μM norepinephrine, control 0.07±0.007", "value": "0.04 ± 0.008", "unit": "nmol/g"}]}
